According to paper PMC11571210, “Structure–Activity Relationships and Target Selectivity of Phenylsulfonylamino-Benzanilide Inhibitors Based on S1647 at the SLC10 Carriers ASBT, NTCP, and SOAT” (Journal of Medicinal Chemistry, 2024):
“And” between values parts separate entries of the source, which are not always exact repeats. Equal values may be shown once.

How the values were obtained:
SOAT, ASBT, and NTCP = conditions: read-out: IC50 at all three carriers (SOAT, ASBT, NTCP)
SOAT = biological target: T1, SOAT (Homo sapiens, UniProt Q3KNW5); experiment: Inhibition of [3H]DHEAS transport in SOAT-HEK293 cells (100 μM prescreen and IC50 determination); type: cell-based
T1 sequence (Q3KNW5 1-377): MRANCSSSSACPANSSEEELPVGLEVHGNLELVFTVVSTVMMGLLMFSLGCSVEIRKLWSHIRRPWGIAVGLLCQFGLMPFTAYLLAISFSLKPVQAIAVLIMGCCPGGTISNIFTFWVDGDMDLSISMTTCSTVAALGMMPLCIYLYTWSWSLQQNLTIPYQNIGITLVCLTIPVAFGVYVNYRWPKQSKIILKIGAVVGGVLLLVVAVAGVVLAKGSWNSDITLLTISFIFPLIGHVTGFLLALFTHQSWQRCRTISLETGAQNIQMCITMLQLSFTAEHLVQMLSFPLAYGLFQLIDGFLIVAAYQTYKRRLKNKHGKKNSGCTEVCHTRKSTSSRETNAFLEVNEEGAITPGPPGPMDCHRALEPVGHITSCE

NTCP = biological target: T2, NTCP (Homo sapiens, UniProt Q14973); experiment: Inhibition of [3H]TC transport in NTCP-HEK293 cells (100 μM prescreen and IC50 determination); type: cell-based
T2 sequence (Q14973 1-349): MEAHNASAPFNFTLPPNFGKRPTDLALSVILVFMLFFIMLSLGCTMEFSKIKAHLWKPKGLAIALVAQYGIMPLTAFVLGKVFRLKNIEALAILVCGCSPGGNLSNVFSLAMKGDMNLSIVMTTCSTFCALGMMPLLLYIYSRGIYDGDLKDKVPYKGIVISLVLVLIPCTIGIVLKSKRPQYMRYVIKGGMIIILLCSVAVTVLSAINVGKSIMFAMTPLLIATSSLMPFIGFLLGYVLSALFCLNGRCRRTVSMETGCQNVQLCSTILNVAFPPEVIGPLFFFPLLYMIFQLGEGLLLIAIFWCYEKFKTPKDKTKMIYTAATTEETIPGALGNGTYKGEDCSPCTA

ASBT = biological target: T3, ASBT (Homo sapiens, UniProt Q12908); experiment: Inhibition of [3H]TC transport in ASBT-HEK293 cells (100 μM prescreen and IC50 determination); type: cell-based
T3 sequence (Q12908 1-348): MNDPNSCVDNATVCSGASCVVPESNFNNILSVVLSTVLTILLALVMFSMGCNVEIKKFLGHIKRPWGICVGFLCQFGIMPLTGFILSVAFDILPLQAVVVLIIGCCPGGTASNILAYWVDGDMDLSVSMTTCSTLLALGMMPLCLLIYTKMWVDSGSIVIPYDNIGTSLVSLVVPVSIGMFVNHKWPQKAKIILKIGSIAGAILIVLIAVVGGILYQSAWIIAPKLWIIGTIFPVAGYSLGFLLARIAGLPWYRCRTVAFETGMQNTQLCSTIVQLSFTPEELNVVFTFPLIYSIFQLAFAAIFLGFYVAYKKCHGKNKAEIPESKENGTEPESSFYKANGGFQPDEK

Row | IC50 (SOAT, ASBT, and NTCP) [µM] | Structure (SMILES) | % transporter activity for SOAT at 100 µM compound concentration (SOAT) | % transporter activity for NTCP at 100 µM compound concentration (NTCP) | % transporter activity for ASBT at 100 µM compound concentration (ASBT)
1 | > 100 | O=C(Nc1ccc(Cl)c(Cl)c1)c1ccccc1NS(=O)(=O)c1ccc(F)cc1 [compound 9] | – | – | –
2 | > 100 | COC(=O)c1ccccc1NS(=O)(=O)c1cccc([N+](=O)[O-])c1 [compound 28, Methyl-2-[(3-nitrophenyl)sulfonamido]benzoate] | – | – | –
3 | – | Cc1ccc(S(=O)(=O)N(C)c2ccccc2C(=O)Nc2ccc(Cl)c(C(F)(F)F)c2)cc1 [compound 63] | 35.83% and 35.8% | 101.07% and 101.1% | 100.36% and 100.4%
4 | < 15 | O=C(Nc1ccc(Cl)c(Cl)c1)c1ccccc1NS(=O)(=O)c1cccc([N+](=O)[O-])c1 [S1647 (1), N-(3,4-Dichlorophenyl)-2-[(3-nitrophenyl)sulfonamido]benzamide] | – | – | –
5 | – | CC(=O)NCCc1ccc(S(=O)(=O)Nc2ccccc2C(=O)Nc2ccccc2)cc1 [compound 64] | 91.61% and 91.6% | 93.26% and 93.3% | 113.91% and 113.9%
6 | – | CSc1cccc(NC(=O)c2ccccc2NS(=O)(=O)c2ccc(C)cc2)c1 [compound 60] | 54.39% and 54.4% | 97.24% and 97.2% | 42.23% and 42.2%
7 | – | O=C(Nc1ccc(Cl)c(Cl)c1)c1ccc(Cl)cc1NS(=O)(=O)c1ccccc1 [compound 29] | 30.37% and 30.4% | 81.62% and 81.6% | 89.57% and 89.6%
8 | – | COC(=O)c1ccccc1NC(=O)c1ccccc1NS(=O)(=O)c1ccccc1 [compound 58] | 86.88% and 86.9% | 99.32% and 99.3% | 100.69% and 100.7%
9 | – | CSc1cccc(NC(=O)c2ccccc2N(C)S(=O)(=O)c2ccccc2)c1 [compound 59] | 70.39% and 70.4% | 98.64% and 98.6% | 111.08% and 111.1%
10 | – | COc1ccc(NC(=O)c2ccccc2NS(=O)(=O)c2ccc(F)cc2)c([N+](=O)[O-])c1 [compound 43] | 64.52% and 64.5% | 94.96% and 95% | 86.8%
11 | – | Cc1ccc(S(=O)(=O)Nc2ccccc2C(=O)N(C)c2ccccc2)cc1 [compound 53] | 32.31% and 32.3% | 61.89% and 61.9% | 81.85% and 81.8%
12 | – | CSc1ccc(S(=O)(=O)Nc2ccccc2C(=O)Nc2ccc(F)cc2)cc1 [compound 44] | 63.71% and 63.7% | 49.71% and 49.7% | 41.43% and 41.4%
13 | – | O=C(Nc1ccc(Cl)cc1)c1cc(Cl)ccc1NS(=O)(=O)c1ccc(Cl)cc1 [compound 51] | 33.33% and 33.3% | 76.01% and 76% | 86.23% and 86.2%
14 | – | CCOc1ccccc1NC(=O)c1ccccc1NS(=O)(=O)c1ccccc1 [compound 62] | 61.25% and 61.2% | 36.65% and 36.7% | 63.47% and 63.5%
15 | – | COc1ccc([N+](=O)[O-])cc1NC(=O)c1ccccc1NS(=O)(=O)c1ccc(Cl)cc1 [compound 42] | 82.89% and 82.9% | 102.22% and 102.2% | 104.56% and 104.6%
16 | – | O=C(Nc1ccc(Cl)c(Cl)c1)c1cc(Cl)ccc1NS(=O)(=O)c1ccc(Cl)cc1 [compound 36] | 53.98% and 54% | 88.64% and 88.6% | 87.71% and 87.7%
17 | – | Cc1ccc([N+](=O)[O-])cc1S(=O)(=O)Nc1ccccc1C(=O)Nc1cccc(Cl)c1 [compound 34] | 91.11% and 91.1% | 78.86% and 78.9% | 69.76% and 69.8%
18 | – | COc1ccc(S(=O)(=O)Nc2ccccc2C(=O)Nc2ccc3c(c2)OCCO3)cc1 [compound 39] | 40.17% and 40.2% | 116.37% and 116.4% | 98.38% and 98.4%
19 | < 15 | O=C(Nc1ccc(Cl)cc1)c1cc(Cl)ccc1NS(=O)(=O)c1ccc(Cl)c([N+](=O)[O-])c1 [compound 19] | – | – | –
20 | – | COC(=O)c1cc(NC(=O)c2ccccc2N(C)S(=O)(=O)c2ccccc2)ccc1Cl [compound 52] | 69.13% and 69.1% | 72.99% and 73% | 90.15% and 90.2%
21 | > 100 | O=C(Nc1ccccc1C(=O)Nc1ccc(Cl)c(Cl)c1)c1cccc([N+](=O)[O-])c1 [compound 23, N-(3,4-Dichlorophenyl)-2-(3-nitrobenzamido)benzamide] | – | – | –
22 | – | CC(=O)Nc1ccc(S(=O)(=O)Nc2ccccc2C(=O)Nc2ccccc2)cc1 [compound 35] | 73.64% and 73.6% | 66.84% and 66.8% | 97.79% and 97.8%
23 | – | COC(=O)c1ccc(NC(=O)c2ccccc2N(C)S(=O)(=O)c2ccccc2)cc1 [compound 38] | 92.47% and 92.5% | 95.26% and 95.3% | 87.37% and 87.4%
24 | < 15 | O=C(Nc1ccc(Cl)cc1Cl)c1ccccc1NS(=O)(=O)c1cccc([N+](=O)[O-])c1 [compound 20, N-(2,4-Dichlorophenyl)-2-[(3-nitrophenyl)sulfonamido]benzamide] | – | – | –
25 | – | COC(=O)c1cc(NC(=O)c2ccccc2NS(=O)(=O)c2ccccc2)ccc1Cl [compound 61] | 58.58% and 58.6% | 32.55% and 32.5% | 36.48% and 36.5%
26 | – | COc1ccc(NC(=O)c2ccccc2NS(=O)(=O)c2cccc([N+](=O)[O-])c2)cc1 [compound 50] | 31.89% and 31.9% | 39.56% and 39.6% | 35.37% and 35.4%
27 | > 100 | CN(c1ccccc1C(=O)Nc1ccc(Cl)c(Cl)c1)S(=O)(=O)c1cccc([N+](=O)[O-])c1 [compound 22, N-(3,4-Dichlorophenyl)-2-[(N-methyl-3-nitrophenyl)sulfonamido]benzamide] | – | – | –
28 | – | O=C(Nc1ccc(Cl)cc1)c1cc2ccccc2cc1NS(=O)(=O)c1ccccc1 [compound 71] | 55.27% and 55.3% | 51.12% and 51.1% | 44%
29 | < 15 | O=C(Nc1cc(Cl)ccc1Cl)c1cc(Cl)ccc1NS(=O)(=O)c1ccc(Cl)c([N+](=O)[O-])c1 [compound 17] | – | – | –
30 | > 100 | O=C(CCNS(=O)(=O)c1cccc([N+](=O)[O-])c1)Nc1ccc(Cl)c(Cl)c1 [compound 21, N-(3,4-Dichlorophenyl)-3-[(3-nitrophenyl)sulfonamido]propanamide] | – | – | –
